Legend:
Raji target cells = experiment: 24-hr lysis assay of inhibitor-treated Leu16 CAR-T cells against Raji; assay type: cell-based; conditions: three E:T ratios, vs vehicle-treated
Description: FIG. 4A-C. Characterization of pharmacologically treated Leu16 CAR-T cells in vitro. (A) TNF-α production CAR+ T cells in the absence of antigen stimulation as quantified by intracellular flow cytometry. Data bars indicate the means of technical triplicates ±1 S.D. ns not statistically significant. (B) Leu16 CAR-T cell fold expansion after 6 days of inhibitor culture was tracked. The bars in FIGS. 4A and 4B, represent data from, EGFRt, Leu16-28z (vehicle), Leu16-28z (MYCi975), Leu16-28z (Betulin), and Leu16-28z (Rapamycin), respectively, from left to right. (C) A 24-hr lysis assay of CAR-T cells against Raji target cells at three effector-to-target (E:T) ratios. Data bars indicate the means of technical triplicates±1 S.D. Percent lysis was normalized to cell counts in target-only wells.
Cytotoxicity assay with Raji cells. Raji cells were seeded at 2×10^5 cells/well in 96-well U-bottom plate and coincubated with CAR^+ T cells at 1:1, 3.33:1, and 10:1 E:T ratios. Untransduced T cells were added to wells as needed to normalize for differing transduction efficiencies and ensure the total number of T cells per well was consistent throughout. Remaining target cells were quantified by MACSQuant VYB flow cytometer 24-hr post co-incubation.

rituximab CAR-T cells = experiment: Antigen-independent activation and exhaustion marker expression by flow cytometry, rituximab CAR-T cells; assay type: cell-based, human; conditions: for measures of antigen-independent CAR-T cell activation: FIG. 1B-D (markers, TNF-α, cell division), MYCi975 2 μM
Description: FIG. 1A-G. Pharmacological inhibition of PI3K/AKT pathway modulates antigen-independent CAR-T cell activation. (A) Table of pharmacological inhibitors used during ex vivo expansion of rituximab CAR-T cells (left). Simplified schematic of the PI3K/AKT signaling axis where black arrows represent activation (right). (B) Activation marker expression by CAR^+ T cells in the absence of antigen stimulation after 5 days of pharmacological modulation. Data bars indicate the means of technical triplicates±1 S.D. The bars in FIG. 1B represent data from, untreated, vehicle, CAL-101, AZD5363, Rapamycin, MYCi975, and Betulin, respectively, from left to right. (C) TNF-α production CAR^+ T cells in the absence of antigen stimulation as quantified by intracellular flow cytometry. Data bars indicate the means of technical triplicates±1 S.D. The bars in FIG. 1B and FIG. 1C represent data from, untreated, vehicle, CAL-101, AZD5363, Rapamycin, MYCi975, and Betulin, respectively, from left to right. (D) Proliferation of CAR^+ T cells stained with CellTrace Violet (CTV) dye was assayed after a 4-day culture in the absence of target cells or exogenous cytokines. Data shown in the histogram correspond to one of technical triplicates shown in the bar graph. The bars FIG. 1D represent data from, EGFRt, untreated, vehicle, CAL-101, AZD5363, Rapamycin, MYCi975, and Betulin, respectively, from left to right. (E) % distribution of T-cell subtypes in CAR^+ T cells after 5 days of pharmacological modulation. Data bars indicate the means of technical triplicates±1 S.D. (F) Rituximab CAR-T cell fold expansion after 6 days of inhibitor culture was tracked. T-cell fold expansion was normalized to the untreated control with each data point representing biological replicates collected from healthy donors. The bars FIG. 1F represent data from, EGFRt, vehicle, CAL-101, AZD5363, Rapamycin, MYCi975, and Betulin, respectively, from left to right. (G) A 24-hr lysis assay of CD20 CAR-T cells against Raji target cells at three effector-to-target (E:T) ratios. Data bars indicate the means of technical triplicates±1 S.D. Percent lysis was normalized to cell counts in target-only wells. […] In (B)-(F), results are representative two independent experiments using cells from of two heathy donors. Statistical significance in panels B, C, and D was determined by two-tailed Student's t test with Sidak correction for multiple comparisons. * p<0.05, ** p<0.01, *** p<0.001, n.s. not statistically significant. […]
Antibody staining for flow-cytometry analysis. EGFRt expression was measured with biotinylated cetuximab (Eli Lilly; biotinylated in-house), followed by PE-conjugated streptavidin (Jackson ImmunoResearch #016-110-084). CAR expression was quantified by surface epitope staining using anti-Fc (Alexa Fluor 488, Jackson ImmunoResearch #709-546-098). Antigen-independent activation-marker expression of CAR-T cells was evaluated by antibody staining for CD137 (PE/Cy7, clone 4B4-1, BioLegend #309818), and PD-1 (FITC, clone EH12.2H7, BioLegend #329904) on Days 18 (i.e., 18 days after Dynabead addition and 11 days after Dynabead removal) and after 5-6 days of inhibitor culture (FIG. 1, FIG. 3). T-cell subtype of CAR-T cells was evaluated by antibody staining for CD45RO (VioBlue®, clone REA611, Miltenyi #130-119-620) and CD62L (APC, clone DREG56, Invitrogen #17-0629-42) after 5-6 days of inhibitor culture (FIG. 1, FIG. 3). […]

Compound | lysis of Raji tumor cells (Raji target cells) | tonic signaling (rituximab CAR-T cells) | measures of antigen-independent CAR-T cell activation (rituximab CAR-T cells)
C=C(C)[C@@H]1CC[C@]2(CO)CC[C@]3(C)[C@H](CC[C@@H]4[C@@]5(C)CC[C@H](O)C(C)(C)[C@@H]5CC[C@]43C)[C@@H]12 [betulin, Betulin] | clustered together | increased | increased most measures
MYCi975 | clustered together | increased | increased most measures
